Laboratory results: ChEMBL document CHEMBL5053547, “Targeting of the FOXM1 Oncoprotein by E3 Ligase-Assisted Degradation” (J Med Chem, 2021)
The source made the active and inactive calls. No cut-off for these calls is given here.

Tests used:
Forkhead box protein M1 = biological target: T1, Forkhead box protein M1 (Homo sapiens, UniProt Q08050); test: Inhibition of recombinant FOXM1-DBD (unknown origin) binding to DNA measured after 30 mins by biochemical EMSA assay
T1 sequence (Q08050 whole entry): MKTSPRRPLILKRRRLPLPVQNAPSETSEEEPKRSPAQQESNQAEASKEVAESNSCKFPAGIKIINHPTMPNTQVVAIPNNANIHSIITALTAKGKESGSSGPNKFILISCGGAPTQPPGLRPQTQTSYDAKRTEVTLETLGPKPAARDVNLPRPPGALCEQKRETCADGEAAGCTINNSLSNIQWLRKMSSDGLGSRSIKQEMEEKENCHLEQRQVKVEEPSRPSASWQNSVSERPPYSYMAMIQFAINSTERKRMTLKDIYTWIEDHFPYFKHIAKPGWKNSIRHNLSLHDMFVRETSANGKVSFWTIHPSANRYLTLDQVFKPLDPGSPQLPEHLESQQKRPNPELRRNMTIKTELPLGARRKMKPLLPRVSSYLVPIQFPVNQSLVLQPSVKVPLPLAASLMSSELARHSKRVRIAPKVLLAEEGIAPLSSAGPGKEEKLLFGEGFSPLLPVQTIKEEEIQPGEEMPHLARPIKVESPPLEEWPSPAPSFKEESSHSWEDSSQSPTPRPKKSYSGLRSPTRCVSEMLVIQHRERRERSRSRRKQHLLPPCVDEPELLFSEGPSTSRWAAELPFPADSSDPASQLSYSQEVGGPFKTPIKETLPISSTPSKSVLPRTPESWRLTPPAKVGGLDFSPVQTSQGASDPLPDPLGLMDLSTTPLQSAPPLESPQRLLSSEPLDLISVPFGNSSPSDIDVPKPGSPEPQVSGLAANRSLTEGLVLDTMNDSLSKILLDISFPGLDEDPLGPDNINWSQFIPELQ

MDA-MB-231 [1] = test: Reduction in FOXM1 expression in mouse xenografted with human MDA-MB-231 cells at 10 mg/kg/day administered through tail vain for 12 consecutive days by Western blot analysis; assay type: functional, organism-based; settings: route iv
MDA-MB-231 [2] = test: Antitumor activity against human MDA-MB-231 cells xenografted in mouse assessed as tumor shrinkage at 10 mg/kg/day administered through tail vain for 12 consecutive days by H and E staining based histological analysis; assay type: functional, organism-based; settings: route iv
MDA-MB-231 [3] = test: Antiproliferative activity against human MDA-MB-231 cells assessed as growth inhibition by MTT assay; assay type: functional
MDA-MB-231 [4] = test: Induction of cell cycle arrest in human MDA-MB-231 cells assessed as accumulation at G0/G1 phase at 20 uM incubated for 16 hrs by flow cytometry assay (reference value: 65.49%); assay type: functional
MDA-MB-231 [5] = test: Induction of cell cycle arrest in human MDA-MB-231 cells assessed as accumulation at G2/M phase at 20 uM incubated for 16 hrs by flow cytometry assay (reference value: 12.30%); assay type: functional
MDA-MB-231 [6] = test: Induction of cell cycle arrest in human MDA-MB-231 cells assessed as accumulation at S phase at 20 uM incubated for 16 hrs by flow cytometry assay (reference value: 22.19%); assay type: functional
MDA-MB-231 [7] = test: In vivo antitumor activity against human MDA-MB-231 cells xenografted in mouse assessed as tumor growth inhibition at 10 mg/kg/day administered through tail vain for 12 consecutive days; assay type: functional; settings: route iv, read-out: TGI
MDA-MB-231 [8] = test: Reduction in beta-catenin nuclear accumulation in human MDA-MB-231 cells at 20 uM incubated for 16 hrs by Western blot analysis; assay type: functional, cell-based
MDA-MB-231 [9] = test: Antitumor activity against human MDA-MB-231 cells xenografted in mouse assessed as […] by measuring Ki67 labelling at 10 mg/kg/day administered through tail vain for 12 consecutive days by immunohistochemical analysis; assay type: functional, organism-based; settings: route iv
MDA-MB-231 [10] = test: Anti-invasive activity against human MDA-MB-231 cells assessed as reduction migration incubated by transwell assay; assay type: functional, cell-based; settings: dose 10-20 µM
MDA-MB-231 [11] = test: Anti-invasive activity against human MDA-MB-231 cells assessed as reduction invasion incubated by transwell assay; assay type: functional, cell-based; settings: dose 10-20 µM
MDA-MB-231 [12] = test: Anti-invasive activity against human MDA-MB-231 cells assessed as decrease in MMP2 gene expression incubated for 16 hrs by qRT-PCR analysis; assay type: functional, cell-based; settings: dose 10-20 µM
MDA-MB-231 [13] = test: Anti-invasive activity against human MDA-MB-231 cells assessed as decrease in Slug gene expression incubated for 16 hrs by qRT-PCR analysis; assay type: functional, cell-based; settings: dose 10-20 µM
Mus musculus = test: Toxicity in mouse xenografted with human MDA-MB-231 cells assessed as change in body weight at 10 mg/kg/day administered through tail vain for 12 consecutive days; assay type: organism-based; settings: in vivo, iv
MDA-MB-231 [14] = test: Anti-invasive activity against human MDA-MB-231 cells assessed as decrease in Vimentin gene expression incubated for 16 hrs by qRT-PCR analysis; assay type: functional, cell-based; settings: dose 10-20 µM
MDA-MB-231 [15] = test: Downregulation of Cyclin B expression in human MDA-MB-231 cells at 20 uM incubated for 16 hrs by Western blot analysis; assay type: functional, cell-based
[16] = Stability in human plasma assessed as half life by LC/MS analysis; assay type: ADME, cell-free
MDA-MB-231 [17] = test: Anti-invasive activity against human MDA-MB-231 cells assessed as increase in E-cadherin mRNA expression incubated for 16 hrs by qRT-PCR analysis; assay type: functional, cell-based; settings: dose 10-20 µM
MCF-10A = test: Cytotoxicity against human MCF-10A cells assessed as cell viability measured upto 30 uM; assay type: cell-based
MDA-MB-231 [18] = test: Downregulation of CDC25B expression in human MDA-MB-231 cells at 20 uM incubated for 16 hrs by Western blot analysis; assay type: functional, cell-based
MDA-MB-231 [19] = test: Anti-invasive activity against human MDA-MB-231 cells assessed as decrease in Snail gene expression incubated for 16 hrs by qRT-PCR analysis; assay type: functional, cell-based; settings: dose 10-20 µM
MCF7 = test: Antiproliferative activity against human MCF7 cells assessed as cell viability measured at 10 uM; assay type: functional, cell-based
[20] = Stability in mouse plasma assessed as half life by LC/MS analysis; assay type: ADME, cell-free
MDA-MB-231 [21] = test: Antineoplastic effect in human MDA-MB-231 cells xenografted in mouse assessed as reduction in tumor volume at 10 mg/kg/day administered through tail vain for 12 consecutive days; assay type: functional, organism-based; settings: route iv
[22] = Stability in rat plasma assessed as half life by LC/MS analysis; assay type: ADME, cell-free

**Q.** Which IC50 (Forkhead box protein M1) does the source give for `Nc1c(C(=O)Nc2ccc(F)cc2)sc2nc(-c3cccs3)cc(C(F)(F)F)c12` here?
**A.** 28.4 µM

**Q.** And the Activity (MDA-MB-231 [1])?
**A.** Active

**Q.** What about the Activity (MDA-MB-231 [2]) of the same compound?
**A.** Active

**Q.** What about the GI50 (MDA-MB-231 [3]) of the same compound?
**A.** 25.6 µM

**Q.** What about the Activity (MDA-MB-231 [4]) of the same compound?
**A.** 57.52%

**Q.** What about the Activity (MDA-MB-231 [5]) of the same compound?
**A.** 16.32%

**Q.** What about the Activity (MDA-MB-231 [6]) of the same compound?
**A.** 16.17%

**Q.** And the inhibition in vivo at 10 mg/kg/day (MDA-MB-231 [7])?
**A.** 47.8%

**Q.** And the Activity (MDA-MB-231 [8])?
**A.** inactive

**Q.** What about the Activity (MDA-MB-231 [9]) of the same compound?
**A.** Active

**Q.** Which GI50 (MDA-MB-231 [3]) does the source give for `COc1ccc(-c2cc(C(F)(F)F)c3c(N)c(C(=O)Nc4ccc(F)cc4)sc3n2)cc1` here?
**A.** 27.3 µM

**Q.** For `Nc1c(C(=O)Nc2ccc(F)cc2)sc2nc(-c3ccc(OCC(=O)NCCOCCOCCNc4cccc5c4C(=O)N(C4CCC(=O)NC4=O)C5=O)cc3)cc(C(F)(F)F)c12` (centres undefined), which GI50 (MDA-MB-231 [3]) is on record?
**A.** > 50 µM

**Q.** Which GI50 (MDA-MB-231 [3]) does the source give for `Nc1c(C(=O)Nc2ccc(F)cc2)sc2nc(-c3ccc(OCC(=O)NCCCNC(=O)COc4cccc5c4C(=O)N(C4CCC(=O)NC4=O)C5=O)cc3)cc(C(F)(F)F)c12` (centres undefined) here?
**A.** 17.4 µM

**Q.** Which Activity (MDA-MB-231 [10]) does the source give for `Nc1c(C(=O)Nc2ccc(F)cc2)sc2nc(-c3ccc(OCC(=O)NCCCOCCOCCOCCCNC(=O)COc4cccc5c4C(=O)N(C4CCC(=O)NC4=O)C5=O)cc3)cc(C(F)(F)F)c12` (centres undefined) here?
**A.** Dose-dependent effect

**Q.** What about the Activity (MDA-MB-231 [11]) of the same compound?
**A.** Dose-dependent effect

**Q.** What about the Activity (MDA-MB-231 [1]) of the same compound?
**A.** Active

**Q.** And the Activity (MDA-MB-231 [12])?
**A.** Dose-dependent effect

**Q.** What about the Activity (MDA-MB-231 [2]) of the same compound?
**A.** Active

**Q.** And the GI50 (MDA-MB-231 [3])?
**A.** 16.2 µM

**Q.** And the Activity (MDA-MB-231 [13])?
**A.** Dose-dependent effect

**Q.** And the Activity (MDA-MB-231 [4])?
**A.** 57.92%

**Q.** What about the Activity (Mus musculus) of the same compound?
**A.** Non-Toxic

**Q.** What about the Activity (MDA-MB-231 [14]) of the same compound?
**A.** Dose-dependent effect

**Q.** And the Activity (MDA-MB-231 [15])?
**A.** Active

**Q.** What about the Activity (MDA-MB-231 [5]) of the same compound?
**A.** 20%

**Q.** And the half-life [16]?
**A.** 1.74 h

**Q.** And the Activity (MDA-MB-231 [17])?
**A.** Dose-dependent effect

**Q.** And the Activity (MDA-MB-231 [6])?
**A.** 21.75%

**Q.** What about the Activity (MCF-10A) of the same compound?
**A.** Non-Toxic

**Q.** And the Activity (MDA-MB-231 [18])?
**A.** Active

**Q.** And the Activity (MDA-MB-231 [19])?
**A.** Dose-dependent effect

**Q.** And the Activity (MCF7)?
**A.** Active

**Q.** And the half-life [20]?
**A.** > 2 h

**Q.** What about the inhibition in vivo at 10 mg/kg/day (MDA-MB-231 [7]) of the same compound?
**A.** 78.2%

**Q.** And the Activity (MDA-MB-231 [8])?
**A.** Active

**Q.** And the Activity (MDA-MB-231 [9])?
**A.** Active

**Q.** And the Activity (MDA-MB-231 [21])?
**A.** Active

**Q.** And the half-life [22]?
**A.** 0.588 h

**Q.** With `Nc1c(C(=O)Nc2ccc(F)cc2)sc2nc(-c3ccc(OCC(=O)NCCCCCCCCNc4cccc5c4C(=O)N(C4CCC(=O)NC4=O)C5=O)cc3)cc(C(F)(F)F)c12` (centres undefined) as the compound, how does the GI50 (MDA-MB-231 [3]) read?
**A.** > 50 µM

**Q.** For `Nc1c(C(=O)Nc2ccc(F)cc2)sc2nc(-c3ccc(OCC(=O)NCCCOCCOCCOCCCNc4cccc5c4C(=O)N(C4CCC(=O)NC4=O)C5=O)cc3)cc(C(F)(F)F)c12` (centres undefined), which GI50 (MDA-MB-231 [3]) is on record?
**A.** > 50 µM

**Q.** What does the source list for `CN1C(=O)CCC(N2C(=O)c3cccc(OCC(=O)NCCCOCCOCCOCCCNC(=O)COc4ccc(-c5cc(C(F)(F)F)c6c(N)c(C(=O)Nc7ccc(F)cc7)sc6n5)cc4)c3C2=O)C1=O` (centres undefined)?
**A.** Activity (MDA-MB-231 [4]): 57.44%; Activity (MDA-MB-231 [15]): inactive; Activity (MDA-MB-231 [5]): 18.2%; Activity (MDA-MB-231 [6]): 24.35%; Activity (MDA-MB-231 [18]): inactive; Activity (MDA-MB-231 [8]): inactive

**Q.** Which GI50 (MDA-MB-231 [3]) does the source give for `Nc1c(C(=O)Nc2ccc(F)cc2)sc2nc(-c3ccc(OCC(=O)NCCCNc4cccc5c4C(=O)N(C4CCC(=O)NC4=O)C5=O)cc3)cc(C(F)(F)F)c12` (centres undefined) here?
**A.** 45.4 µM

**Q.** With `Nc1c(C(=O)Nc2ccc(F)cc2)sc2nc(-c3ccc(OCC(=O)NCCCCCCCCNC(=O)COc4cccc5c4C(=O)N(C4CCC(=O)NC4=O)C5=O)cc3)cc(C(F)(F)F)c12` (centres undefined) as the compound, how does the GI50 (MDA-MB-231 [3]) read?
**A.** 38.6 µM

**Q.** With `Nc1c(C(=O)Nc2ccc(F)cc2)sc2nc(-c3ccc(OCC(=O)NCCOCCOCCNC(=O)COc4cccc5c4C(=O)N(C4CCC(=O)NC4=O)C5=O)cc3)cc(C(F)(F)F)c12` (centres undefined) as the compound, how does the GI50 (MDA-MB-231 [3]) read?
**A.** 19.5 µM
